The source of these data is patent EP1568373A2, “Inducing cellular immune responses to HER2/neu using peptide and nucleic acid compositions” (priority 1999, dated 2001).

Where no end group is shown, it is not given here.

The IC50 is the point on the concentration scale where inhibition reaches its midpoint. Low values mean higher potency, high ones lower potency.

Test [1] deals with DRB1*0301 (DR3) (Homo sapiens, UniProt P01903+P01911, A100K/A102G/A103R/A169T/F55Y/I96L/K41T/L162R/M171V/P40S/Q125H/Q178H/Q39Y/R42S/S66N/T106N/T262R/W38E/Y61H). The test is described as follows: HLA class II binding assay, purified HLA molecules. As to conditions: Table XXX.
Chain of DRB1*0301 (DR3) (P01903 26-254 limits assumed, other chains not shown): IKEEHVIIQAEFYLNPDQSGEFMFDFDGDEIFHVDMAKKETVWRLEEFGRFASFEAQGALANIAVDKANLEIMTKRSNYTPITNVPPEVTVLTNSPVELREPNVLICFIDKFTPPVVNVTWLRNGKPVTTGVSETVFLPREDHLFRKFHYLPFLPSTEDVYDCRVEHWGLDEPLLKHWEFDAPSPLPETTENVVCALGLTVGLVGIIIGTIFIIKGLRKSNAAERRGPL
Test [2] has as its system CD8+ T-cells. The test is described as follows: Primary in vitro CTL induction with peptide-pulsed DC, 51Cr release and in situ IFNγ assays. The test is classed as cell-based, human. How it is done: The colon adenocarcinoma cell lines SW403 and HT-29 were obtained from the American Type Culture Collection (ATCC) (Rockville, MD). The cell lines that were obtained from ATCC were maintained under the culture conditions recommended by the supplier. […] The colon cancer cells were treated with 100U/ml IFNγ (Genzyme) for 48 hours at 37°C before use as targets in the ^51Cr release and in situ IFNγ assays.
The monocytes were purified by plating 10 x 10^6 PBMC/well in a 6-well plate. After 2 hours at 37°C, the non-adherent cells were removed by gently shaking the plates and aspirating the supernatants. The wells were washed a total of three times with 3 ml RPMI to remove most of the non-adherent and loosely adherent cells. Three ml of complete medium containing 50 ng/ml of GM-CSF and 1,000 U/ml of IL 4 were then added to each well. […]
Induction of CTL with DC and Peptide: CD8+ T-cells were isolated by positive selection with Dynal immunomagnetic beads (Dynabeads® M-450) and the detacha-bead® reagent. […] The DC were collected and centrifuged at 1300 rpm for 5-7 minutes, washed once with PBS with 1% BSA, counted and pulsed with 40µg/ml of peptide at a cell concentration of 1-2×10^6/ml in the presence of 3µg/ml ß2- microglobulin for 4 hours at 20°C. The DC were then irradiated (4,200 rads), washed 1 time with medium and counted again. […]

In test [1], `CSCC[C@H](NC(=O)[C@H](CCCNC(=N)N)NC(=O)[C@H](CO)NC(=O)[C@H](Cc1ccccc1)NC(=O)[C@H](CCC(=O)O)NC(=O)[C@H](CO)NC(=O)[C@@H](NC(=O)[C@H](CC(C)C)NC(=O)[C@H](CCC(=O)O)NC(=O)[C@H](CCCNC(=N)N)NC(=O)[C@@H](N)Cc1ccccc1)C(C)C)C(=O)N[C@@H](C)C(=O)N[C@@H](CCCNC(=N)N)C(=O)N[C@@H](CC(=O)O)C(=O)N1CCC[C@H]1C(=O)O` [Her2/neu.969] showed an IC50 of 4.22 µM. In the case of `CC(C)C[C@H](NC(=O)[C@H](CO)NC(=O)CNC(=O)[C@H](Cc1ccccc1)NC(=O)[C@@H](NC(=O)[C@@H](N)CCCCN)C(C)C)C(=O)N[C@@H](C)C(=O)N[C@@H](Cc1ccccc1)C(=O)N[C@H](C(=O)O)C(C)C` [V2V9], the “recognition of wild-type peptide and of tumor targets that endogenously express HER2/neu by the induced CTLs” value in test [2] (expanded positive cultures) was “also recognized the target tumor cells”. Besides, the “induction of peptide-specific CTL response” value in test [2] (normal donors, peptide-pulsed targets) is listed as “induced peptide-specific CTLs”. For the compound SLSFLQDIQEVQGYV [Her2/neu.70], in test [1], the IC50 was determined as 5.77 µM.
